{
  "source": "patent EP0009777A1",
  "about": "“Retinoic- and 7,8-dehydro-retinoic-acid-N-(carboxy)phenyl amides, process for their preparation and pharmaceutical compositions containing them” (BASF Aktiengesellschaft, priority 1978, dated 1980)",
  "data": [
    {"test_system": "Hamster-Tracheen-Gewebe", "experiment": "Reversal of keratinisation induced by vitamin A deficiency in hamster tracheal tissue (organ culture; methods of Clamon et al. 1974, Sporn et al. 1975)", "format": "cell-based", "conditions": "Mesocricetus auratus, keratinisation induced by vitamin A hypovitaminosis, read-out: Konzentration, in der die Keratinisierung von Hamster-Tracheen-Gewebe rückgängig gemacht / geheilt wird (wirksam)", "source_text": "(§1) Nachteilig an diesen bekannten Retinsäureamiden ist ihre geringe therapeutische Breite. Die Substanzen zeigen entweder eine vergleichsweise geringe Aktivität oder wie wirken schon in vergleichsweise geringen Dosen toxisch. So kann beispielsweise Retinsäure-N-etylamid schon in 2 x 10-^9 molaren Konzentrationen die durch Vitamin A-Hypovitaminose induzierte Keratinisierung von Hamster-Tracheen--Gewebe wieder rückgängig machen. Die Methodik hierzu kann G.H. Clamon et al Nature 250; 64-66 (1974) oder M.B. Sporn et al Nature 253, 47-50 (1975)) entnommen werden. Die Keratinisierung wird als praekanzerotischer Prozeß angesehen. Das Retinsäure-N-ethylamid wirkt bereits in einer Konzentration von 9 x 10-^7 molar toxisch auf Tracheenknorpelgewebe vom Hamster in Kultur, wie von M.B. Sporn et al in Nature 263, 110-113 (1976) beschrieben ist.\n(§2) Bei der Prophylaxe von Praekanzerosen an keratinisiertem Hamster-Tracheen-Gewebe ist die freie Säure jedoch noch in 10^-10 molarer Konzentration wirksam und damit wesentlich aktiver als der Ethylester.", "units": {"minimal effective concentration": "µM"}, "values": [
      {"molecule": "CCNC(=O)/C=C(C)/C=C/C=C(C)/C=C/C1=C(C)CCCC1(C)C", "note": "[Retinsäure-N-ethylamid, reference compound]", "minimal effective concentration": 0.002},
      {"molecule": "CCOC(=O)c1ccc(NC(=O)/C=C(C)/C=C/C=C(C)/C=C/C2=C(C)CCCC2(C)C)cc1", "note": "[Retinsäure-N-(p-ethoxycarbonyl)-phenylamid, reference compound]", "minimal effective concentration": 0.01},
      {"molecule": "CC1=C(/C=C/C(C)=C/C=C/C(C)=C/C(=O)Nc2ccc(C(=O)O)cc2)C(C)(C)CCC1", "note": "[all-E-Retinsäure-N-(p-carboxy)-phenylamid]", "minimal effective concentration": 0.0001}
    ]},
    {"test_system": "Hamster-Tracheen-Gewebe", "experiment": "Reversal of keratinisation induced by vitamin A deficiency in hamster tracheal tissue (organ culture; methods of Clamon et al. 1974, Sporn et al. 1975)", "format": "cell-based", "conditions": "keratinisation induced by vitamin A hypovitaminosis", "source_text": "as §1, §2", "values": [
      {"molecule": "CC1=C(/C=C/C(C)=C/C=C/C(C)=C\\C(=O)Nc2ccc(C(=O)O)cc2)C(C)(C)CCC1", "note": "[13-Z-Retinsäure-N-(p-carboxy)-phenylamid]", "Konzentration, in der die Keratinisierung von Hamster-Tracheen-Gewebe rückgängig gemacht / geheilt wird (wirksam)": "Entsprechende Resultate"},
      {"molecule": "CC1=C(C#C/C(C)=C/C=C/C(C)=C/C(=O)Nc2ccc(C(=O)O)cc2)C(C)(C)CCC1", "note": "[all-E-7,8-Dehydro-retinsäure-N-(p-carboxy)-phenylamid]", "Konzentration, in der die Keratinisierung von Hamster-Tracheen-Gewebe rückgängig gemacht / geheilt wird (wirksam)": "Entsprechende Resultate"},
      {"molecule": "CC1=C(/C=C/C(C)=C/C=C/C(C)=C\\C(=O)Nc2ccccc2C(=O)O)C(C)(C)CCC1", "note": "[13-Z-Retinsäure-N-(o-carboxy)-phenylamid]", "Konzentration, in der die Keratinisierung von Hamster-Tracheen-Gewebe rückgängig gemacht / geheilt wird (wirksam)": "Entsprechende Resultate"},
      {"molecule": "CC1=C(/C=C/C(C)=C/C=C/C(C)=C/C(=O)Nc2cccc(C(=O)O)c2)C(C)(C)CCC1", "note": "[all-E-Retinsäure-N-(m-carboxy)-phenylamid]", "Konzentration, in der die Keratinisierung von Hamster-Tracheen-Gewebe rückgängig gemacht / geheilt wird (wirksam)": "Entsprechende Resultate"},
      {"molecule": "CC1=C(C#C/C(C)=C/C=C/C(C)=C/C(=O)Nc2ccccc2C(=O)O)C(C)(C)CCC1", "note": "[all-E-7,8-Dehydro-retinsäure-N-(o-carboxy)-phenylamid]", "Konzentration, in der die Keratinisierung von Hamster-Tracheen-Gewebe rückgängig gemacht / geheilt wird (wirksam)": "Entsprechende Resultate"},
      {"molecule": "CC1=C(/C=C/C(C)=C/C=C/C(C)=C\\C(=O)Nc2cccc(C(=O)O)c2)C(C)(C)CCC1", "note": "[13-Z-Retinsäure-N-(m-carboxy)-phenylamid]", "Konzentration, in der die Keratinisierung von Hamster-Tracheen-Gewebe rückgängig gemacht / geheilt wird (wirksam)": "Entsprechende Resultate"},
      {"molecule": "CC1=C(C#C/C(C)=C/C=C/C(C)=C/C(=O)Nc2cccc(C(=O)O)c2)C(C)(C)CCC1", "note": "[all-E-7,8-Dehydro-retinsäure-N-(m-carboxy)-phenylamid]", "Konzentration, in der die Keratinisierung von Hamster-Tracheen-Gewebe rückgängig gemacht / geheilt wird (wirksam)": "Entsprechende Resultate"},
      {"molecule": "CC1=C(/C=C/C(C)=C/C=C/C(C)=C/C(=O)Nc2ccccc2C(=O)O)C(C)(C)CCC1", "note": "[all-E-Retinsäure-N-(o-carboxy)-phenylamid]", "Konzentration, in der die Keratinisierung von Hamster-Tracheen-Gewebe rückgängig gemacht / geheilt wird (wirksam)": "Entsprechende Resultate"}
    ]},
    {"test_system": "Tracheenknorpelgewebe vom Hamster", "experiment": "Toxicity on hamster tracheal cartilage tissue in culture (Sporn et al. 1976)", "format": "cell-based", "conditions": "result in words; test not named, presumably the tracheal cartilage culture", "source_text": "as §1", "values": [
      {"molecule": "CCOC(=O)c1ccc(NC(=O)/C=C(C)/C=C/C=C(C)/C=C/C2=C(C)CCCC2(C)C)cc1", "note": "[Retinsäure-N-(p-ethoxycarbonyl)-phenylamid, reference compound]", "celluläre Toxizität": "geringe celluläre Toxizität"},
      {"molecule": "CC1=C(/C=C/C(C)=C/C=C/C(C)=C/C(=O)Nc2ccc(C(=O)O)cc2)C(C)(C)CCC1", "note": "[all-E-Retinsäure-N-(p-carboxy)-phenylamid]", "celluläre Toxizität": "ebenso geringe Toxizität wie der entsprechende Ethylester"}
    ]}
  ]
}
